One experiment addresses PRC2 containing wt EZH2 (Homo sapiens (Human), UniProt Q15910). As to the kind of experiment: EZH2 biochemical assay (IC50), 3H-SAM incorporation into biotinylated H3 peptide. The conditions noted are these: 30 pM PRC2 containing wt EZH2, 3-5 h pre-incubation. Put shortly:
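Activity was measured as ³H-methyl transfer to a biotinylated H3K27me1 peptide over 18-22 h at room temperature, with capture on streptavidin flash plates. The 30 pM wt-EZH2 PRC2 complex was first pre-incubated 3-5 h with compound, 450 nM SAM/450 nM ³H-SAM and 2 µM H3K27me3 activator (pH 8.5, 0.8% DMSO). Four-parameter fits gave IC50.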

Experiment [1] deals with H3K27me3 mark in HeLa cells (EZH2). The experiment can be described thus: H3K27me3 Alpha Hela Assay (AlphaLISA). The class given is cell-based. The settings on record: Homo sapiens, HeLa, 72 h, HeLa cells, 72 hrs; read-out: EZH2 Cell H3K27me3 Alpha HeLa (EC50 K27me3). Put shortly: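 HeLa cells (1,000/well) treated with ten 3-fold compound doses for 72 h at 37 °C; lysates extracted and H3K27me3 detected by AlphaLISA with anti-K27me3 acceptor beads, biotinylated anti-H3 (3 nM) and streptavidin donor beads. EC50 from DMSO-normalized dose-response curves; duplicate plate assessed viability.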
(In general: Bead proximity is the source of the signal in Alpha formats.)

Read-outs that look alike come from different tables or passages of the source. A value given as a limit tells only on which side of the number the result lay.

The text below walks through data of US11459315B2, “Modulators of methyl modifying enzymes, compositions and uses thereof” (Constellation Pharmaceuticals, Inc., priority 2017, dated 2022).

Sequence of PRC2 containing wt EZH2 (Q15910 whole entry): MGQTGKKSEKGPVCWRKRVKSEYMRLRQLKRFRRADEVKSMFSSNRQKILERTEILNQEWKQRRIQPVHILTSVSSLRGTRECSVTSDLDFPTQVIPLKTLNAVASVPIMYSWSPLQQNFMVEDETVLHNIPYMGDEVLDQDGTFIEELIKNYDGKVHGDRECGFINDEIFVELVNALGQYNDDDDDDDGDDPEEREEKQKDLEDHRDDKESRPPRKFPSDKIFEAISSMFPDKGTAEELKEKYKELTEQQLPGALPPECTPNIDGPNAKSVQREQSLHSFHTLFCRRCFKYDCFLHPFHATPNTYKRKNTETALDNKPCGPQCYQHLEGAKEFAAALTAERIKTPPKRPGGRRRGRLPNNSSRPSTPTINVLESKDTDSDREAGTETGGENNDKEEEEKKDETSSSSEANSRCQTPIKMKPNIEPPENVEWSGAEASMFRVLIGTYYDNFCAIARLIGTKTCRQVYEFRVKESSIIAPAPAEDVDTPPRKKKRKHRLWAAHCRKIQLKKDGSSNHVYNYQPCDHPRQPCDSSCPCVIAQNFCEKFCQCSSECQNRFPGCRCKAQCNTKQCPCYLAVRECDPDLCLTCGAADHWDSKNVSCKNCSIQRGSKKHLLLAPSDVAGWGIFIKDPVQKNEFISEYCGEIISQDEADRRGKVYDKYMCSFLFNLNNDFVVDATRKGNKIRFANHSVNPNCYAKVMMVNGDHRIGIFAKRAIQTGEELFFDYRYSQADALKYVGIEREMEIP
Sequence of PRC2 containing wt EZH2 (O75530 whole entry partner): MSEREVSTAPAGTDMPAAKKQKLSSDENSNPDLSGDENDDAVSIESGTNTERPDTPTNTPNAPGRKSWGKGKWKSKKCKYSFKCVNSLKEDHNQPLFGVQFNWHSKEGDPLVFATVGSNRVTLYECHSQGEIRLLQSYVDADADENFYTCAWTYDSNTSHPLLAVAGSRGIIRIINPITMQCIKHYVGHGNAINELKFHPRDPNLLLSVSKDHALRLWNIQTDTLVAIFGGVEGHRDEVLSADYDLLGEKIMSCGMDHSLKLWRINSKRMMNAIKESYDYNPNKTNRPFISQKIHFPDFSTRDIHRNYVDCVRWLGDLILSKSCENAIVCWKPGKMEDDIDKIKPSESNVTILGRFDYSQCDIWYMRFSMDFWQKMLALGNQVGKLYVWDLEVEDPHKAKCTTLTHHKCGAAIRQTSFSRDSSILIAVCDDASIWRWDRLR
Sequence of PRC2 containing wt EZH2 (Q15022 whole entry partner): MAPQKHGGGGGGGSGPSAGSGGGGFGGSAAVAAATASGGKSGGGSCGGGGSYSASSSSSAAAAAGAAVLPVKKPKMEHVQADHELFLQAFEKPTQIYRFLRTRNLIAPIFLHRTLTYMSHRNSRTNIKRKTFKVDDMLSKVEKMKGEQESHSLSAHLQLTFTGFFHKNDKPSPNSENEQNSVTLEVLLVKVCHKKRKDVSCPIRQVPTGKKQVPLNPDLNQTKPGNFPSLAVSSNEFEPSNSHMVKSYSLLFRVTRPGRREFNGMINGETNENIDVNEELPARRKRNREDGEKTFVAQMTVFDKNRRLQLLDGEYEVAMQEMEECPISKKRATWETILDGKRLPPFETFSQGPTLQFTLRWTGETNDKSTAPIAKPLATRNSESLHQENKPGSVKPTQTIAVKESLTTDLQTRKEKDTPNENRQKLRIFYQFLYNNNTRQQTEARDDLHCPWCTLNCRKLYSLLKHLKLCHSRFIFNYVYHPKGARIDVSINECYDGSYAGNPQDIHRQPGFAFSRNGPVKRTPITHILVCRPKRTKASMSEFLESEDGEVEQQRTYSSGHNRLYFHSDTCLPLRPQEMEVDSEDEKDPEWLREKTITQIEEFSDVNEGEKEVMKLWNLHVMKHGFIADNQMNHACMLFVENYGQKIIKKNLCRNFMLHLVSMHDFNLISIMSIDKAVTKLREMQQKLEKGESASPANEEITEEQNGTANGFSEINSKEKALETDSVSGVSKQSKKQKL
Sequence of PRC2 containing wt EZH2 (Q09028 whole entry partner): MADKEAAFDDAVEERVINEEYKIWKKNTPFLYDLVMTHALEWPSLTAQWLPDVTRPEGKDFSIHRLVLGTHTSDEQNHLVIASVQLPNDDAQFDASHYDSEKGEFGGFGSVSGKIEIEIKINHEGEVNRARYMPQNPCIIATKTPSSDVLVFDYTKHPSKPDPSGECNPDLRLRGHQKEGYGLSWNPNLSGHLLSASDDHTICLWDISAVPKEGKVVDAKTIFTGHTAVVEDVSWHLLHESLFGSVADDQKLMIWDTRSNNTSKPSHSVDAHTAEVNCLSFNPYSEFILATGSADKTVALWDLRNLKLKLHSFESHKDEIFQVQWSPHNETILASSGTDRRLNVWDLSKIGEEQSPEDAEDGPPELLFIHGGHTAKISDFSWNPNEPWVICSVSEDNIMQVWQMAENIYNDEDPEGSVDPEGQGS
Sequence of PRC2 containing wt EZH2 (Q6ZN18 whole entry partner): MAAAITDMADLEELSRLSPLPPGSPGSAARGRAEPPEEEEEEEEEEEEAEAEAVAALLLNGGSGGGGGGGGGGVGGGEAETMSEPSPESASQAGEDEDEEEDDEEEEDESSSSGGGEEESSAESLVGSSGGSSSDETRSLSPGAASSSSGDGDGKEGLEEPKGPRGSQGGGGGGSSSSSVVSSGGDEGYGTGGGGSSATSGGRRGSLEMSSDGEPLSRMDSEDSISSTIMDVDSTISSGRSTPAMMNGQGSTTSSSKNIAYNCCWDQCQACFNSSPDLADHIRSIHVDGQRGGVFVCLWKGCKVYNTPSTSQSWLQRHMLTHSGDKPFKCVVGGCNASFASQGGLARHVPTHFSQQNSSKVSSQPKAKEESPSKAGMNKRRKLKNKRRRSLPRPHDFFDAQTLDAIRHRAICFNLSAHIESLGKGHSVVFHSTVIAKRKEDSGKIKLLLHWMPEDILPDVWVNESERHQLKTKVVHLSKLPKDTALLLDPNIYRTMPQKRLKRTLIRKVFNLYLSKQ

For orientation: IC50 means the point on the concentration scale where inhibition reaches its midpoint. By EC50 is commonly meant the concentration giving half of the maximal effect. With `CSc1cc(C)[nH]c(=O)c1CNC(=O)c1c(C)n([C@H](C)C2CCC(N3CCC(OC4CC4)C3)CC2)c2ncccc12` (stereo partly drawn) [Example 111, 1-((1R)-1-(4-(3-cyclopropoxypyrrolidin-1-yl)cyclohexyl)ethyl)-2-methyl-N-((6-methyl-4-(methylthio)-2-oxo-1,2-dihydropyridin-3-yl)methyl)-1H-pyrrolo[2,3-b]pyridine-3-carboxamide], the IC50 on PRC2 containing wt EZH2 (read-out: EZH2 (IC50)) was less than 0.5 nM. Also, in experiment [1], the 50% effective concentration (EC50) lay within 10 to 100 nM.
The like results for `CSc1cc(C)[nH]c(=O)c1CNC(=O)c1c(C)n([C@H](C)C2CCN(CC(F)(F)F)CC2)c2cccc(C(F)F)c12` [Example 114, (R)-4-(difluoromethyl)-2-methyl-N-((6-methyl-4-(methylthio)-2-oxo-1,2-dihydropyridin-3-yl)methyl)-1-(1-(1-(2,2,2-trifluoroethyl)piperidin-4-yl)ethyl)-1H-indole-3-carboxamide] were, in that order, more than 5 nM and more than 100 nM.
On to `CSc1cc(C)[nH]c(=O)c1CNC(=O)c1c(C)n([C@H](C)C2CCC(N3CC(OC(F)F)C3)CC2)c2ncc(C)cc12` (stereo partly drawn) [Example 115, 1-((R)-1-(4-(3-(difluoromethoxy)azetidin-1-yl)cyclohexyl)ethyl)-2,5-dimethyl-N-((6-methyl-4-(methylthio)-2-oxo-1,2-dihydropyridin-3-yl)methyl)-1H-pyrrolo[2,3-b]pyridine-3-carboxamide], for which the 50% inhibitory concentration (IC50) on PRC2 containing wt EZH2 (read-out: EZH2 (IC50)) is less than 0.5 nM. In addition, the EC50 in experiment [1] was less than 10 nM.
On the same counts, the results for `CSc1cc(C)[nH]c(=O)c1CNC(=O)c1c(C)n([C@H](C)C2CCC(N3CC(OCC(F)F)C3)CC2)c2ncccc12` (stereo partly drawn) [Example 116, 1-((R)-1-(4-(3-(2,2-difluoroethoxy)azetidin-1-yl)cyclohexyl)ethyl)-2-methyl-N-((6-methyl-4-(methylthio)-2-oxo-1,2-dihydropyridin-3-yl)methyl)-1H-pyrrolo[2,3-b]pyridine-3-carboxamide] are less than 0.5 nM and less than 10 nM.
The like results for `CC[C@@H](C1CCC(N2CC(OC(F)F)C2)CC1)n1c(C)c(C(=O)NCc2c(SC)cc(C)[nH]c2=O)c2cccnc21` (stereo partly drawn) [Example 117, 1-((S)-1-(4-(3-(difluoromethoxy)azetidin-1-yl)cyclohexyl)propyl)-2-methyl-N-((6-methyl-4-(methylthio)-2-oxo-1,2-dihydropyridin-3-yl)methyl)-1H-pyrrolo[2,3-b]pyridine-3-carboxamide] were, in that order, 0.5 to 5 nM and 10 to 100 nM.
`CC[C@H](C1CCC(N2CC(OC(F)F)C2)CC1)n1c(C)c(C(=O)NCc2c(SC)cc(C)[nH]c2=O)c2cccnc21` (stereo partly drawn) [Example 118, 1-((R)-1-(4-(3-(difluoromethoxy)azetidin-1-yl)cyclohexyl)propyl)-2-methyl-N-((6-methyl-4-(methylthio)-2-oxo-1,2-dihydropyridin-3-yl)methyl)-1H-pyrrolo[2,3-b]pyridine-3-carboxamide]: the IC50 on PRC2 containing wt EZH2 (read-out: EZH2 (IC50)) is less than 0.5 nM. Further, the EC50 in experiment [1] was less than 10 nM.
On the same counts, the results for `CSc1cc(C)[nH]c(=O)c1CNC(=O)c1c(C)n([C@H](C)C2CCC(N3CC[C@@H](OC(F)F)C3)CC2)c2ncccc12` (stereo partly drawn) [Example 119, 1-((R)-1-(4-((R)-3-(difluoromethoxy)pyrrolidin-1-yl)cyclohexyl)ethyl)-2-methyl-N-((6-methyl-4-(methylthio)-2-oxo-1,2-dihydropyridin-3-yl)methyl)-1H-pyrrolo[2,3-b]pyridine-3-carboxamide] are less than 0.5 nM and less than 10 nM.
The like results for `CSc1cc(C)[nH]c(=O)c1CNC(=O)c1c(C)n([C@H](C)C2CCC(N3CC[C@H](OC(F)F)C3)CC2)c2ncccc12` (stereo partly drawn) [Example 120, 1-((R)-1-(4-((S)-3-(difluoromethoxy)pyrrolidin-1-yl)cyclohexyl)ethyl)-2-methyl-N-((6-methyl-4-(methylthio)-2-oxo-1,2-dihydropyridin-3-yl)methyl)-1H-pyrrolo[2,3-b]pyridine-3-carboxamide] were, in that order, less than 0.5 nM and 10 to 100 nM.
The like results for `CSc1cc(C)[nH]c(=O)c1CNC(=O)c1c(C)n([C@H](C)C2CCC(N3CC(OC(F)F)C3)CC2)c2ncc(F)cc12` (stereo partly drawn) [Example 122, 1-((R)-1-(4-(3-(difluoromethoxy)azetidin-1-yl)cyclohexyl)ethyl)-5-fluoro-2-methyl-N-((6-methyl-4-(methylthio)-2-oxo-1,2-dihydropyridin-3-yl)methyl)-1H-pyrrolo[2,3-b]pyridine-3-carboxamide] were, in that order, less than 0.5 nM and less than 10 nM.
As for `CSc1cc(C)[nH]c(=O)c1CNC(=O)c1c(C)n([C@H](C)C2CCC(N3CC(OC4CC4)C3)CC2)c2ncc(Cl)cc12` (stereo partly drawn) [Example 124, 5-chloro-1-((R)-1-(4-(3-cyclopropoxyazetidin-1-yl)cyclohexyl)ethyl)-2-methyl-N-((6-methyl-4-(methylthio)-2-oxo-1,2-dihydropyridin-3-yl)methyl)-1H-pyrrolo[2,3-b]pyridine-3-carboxamide], the IC50 at PRC2 containing wt EZH2 (read-out: EZH2 (IC50)) was less than 0.5 nM. Further, in experiment [1], the EC50 was less than 10 nM.
Turning to `CSc1cc(C)[nH]c(=O)c1CNC(=O)c1c(C)n([C@H](C)C2CCC(N3CC(OC4CCC4)C3)CC2)c2ncc(Cl)cc12` (stereo partly drawn) [Example 126, 5-chloro-1-((R)-1-(4-(3-cyclobutoxyazetidin-1-yl)cyclohexyl)ethyl)-2-methyl-N-((6-methyl-4-(methylthio)-2-oxo-1,2-dihydropyridin-3-yl)methyl)-1H-pyrrolo[2,3-b]pyridine-3-carboxamide], on PRC2 containing wt EZH2 (read-out: EZH2 (IC50)), the IC50 is less than 0.5 nM. Also, the EC50 in experiment [1] is less than 10 nM.
As for `CSc1cc(C)[nH]c(=O)c1CNC(=O)c1c(C)n([C@H](C)C2CCN(CC(F)(F)F)CC2)c2cc(Br)ccc12` [Example 127, (R)-6-bromo-2-methyl-N-((6-methyl-4-(methylthio)-2-oxo-1,2-dihydropyridin-3-yl)methyl)-1-(1-(1-(2,2,2-trifluoroethyl)piperidin-4-yl)ethyl)-1H-indole-3-carboxamide], at PRC2 containing wt EZH2 (EZH2 (IC50)), the half-maximal inhibitory concentration (IC50) was less than 0.5 nM. For the same molecule, in experiment [1], the EC50 is 10 to 100 nM.
On the same counts, the results for `CSc1cc(C)[nH]c(=O)c1CNC(=O)c1c(C)n([C@H](C)C2CCN(CC(F)(F)F)CC2)c2cccc(Br)c12` [Example 128, (R)-4-bromo-2-methyl-N-((6-methyl-4-(methylthio)-2-oxo-1,2-dihydropyridin-3-yl)methyl)-1-(1-(1-(2,2,2-trifluoroethyl)piperidin-4-yl)ethyl)-1H-indole-3-carboxamide] are 0.5 to 5 nM and 10 to 100 nM.
Turning to `CSc1cc(C)[nH]c(=O)c1CNC(=O)c1c(C)n([C@H](C)C2CCC(N3CC(OC(C)(C)C)C3)CC2)c2ncc(Cl)cc12` (stereo partly drawn) [Example 129, 1-((R)-1-(4-(3-(tert-butoxy)azetidin-1-yl)cyclohexyl)ethyl)-5-chloro-2-methyl-N-((6-methyl-4-(methylthio)-2-oxo-1,2-dihydropyridin-3-yl)methyl)-1H-pyrrolo[2,3-b]pyridine-3-carboxamide], the IC50 at PRC2 containing wt EZH2 (read-out: EZH2 (IC50)) was less than 0.5 nM. In experiment [1], the half-maximal effective concentration (EC50) was less than 10 nM.
For `CSc1cc(C)[nH]c(=O)c1CNC(=O)c1c(C)n([C@H](C)C2CCN(C3(C)CC3)CC2)c2ncccc12` [Example 131, (R)-2-methyl-N-((6-methyl-4-(methylthio)-2-oxo-1,2-dihydropyridin-3-yl)methyl)-1-(1-(1-(1-methylcyclopropyl)piperidin-4-yl)ethyl)-1H-pyrrolo[2,3-b]pyridine-3-carboxamide], the half-maximal inhibitory concentration (IC50) against PRC2 containing wt EZH2 (EZH2 (IC50)) is less than 0.5 nM. In addition, the EC50 in experiment [1] is less than 10 nM.
The like results for `CSc1cc(C)[nH]c(=O)c1CNC(=O)c1c(C)n([C@H](C)C2CCC(OC3CC3)CC2)c2ccccc12` (stereo partly drawn) [Example 132, 1-((R)-1-(4-cyclopropoxycyclohexyl)ethyl)-2-methyl-N-((6-methyl-4-(methylthio)-2-oxo-1,2-dihydropyridin-3-yl)methyl)-1H-indole-3-carboxamide] were, in that order, less than 0.5 nM and less than 10 nM.
On the same counts, the results for `CSc1cc(C)[nH]c(=O)c1CNC(=O)c1c(C)n([C@H](C)C2CCN(C3COC3)CC2)c2ccccc12` [Example 133, (R)-2-methyl-N-((6-methyl-4-(methylthio)-2-oxo-1,2-dihydropyridin-3-yl)methyl)-1-(1-(1-(oxetan-3-yl)piperidin-4-yl)ethyl)-1H-indole-3-carboxamide] are less than 0.5 nM and less than 10 nM.
On to `CSc1cc(C)[nH]c(=O)c1CNC(=O)c1c(C)n([C@H](C)C2CCN(C(=O)CO)CC2)c2ccccc12` [Example 135, (R)-1-(1-(1-(2-hydroxyacetyl)piperidin-4-yl)ethyl)-2-methyl-N-((6-methyl-4-(methylthio)-2-oxo-1,2-dihydropyridin-3-yl)methyl)-1H-indole-3-carboxamide], for which, on PRC2 containing wt EZH2 (read-out: EZH2 (IC50)), the IC50 was less than 0.5 nM. Moreover, in experiment [1], the EC50 was more than 100 nM.
`CSc1cc(C)[nH]c(=O)c1CNC(=O)c1c(C)n([C@H](C)C2CCC(N3CC(O)C3)CC2)c2ccccc12` (stereo partly drawn) [Example 136, (R)-1-(1-(4-(3-hydroxyazetidin-1-yl)cyclohexyl)ethyl)-2-methyl-N-((6-methyl-4-(methylthio)-2-oxo-1,2-dihydropyridin-3-yl)methyl)-1H-indole-3-carboxamide]: at PRC2 containing wt EZH2 (EZH2 (IC50)), the IC50 was less than 0.5 nM. For the same molecule, the EC50 in experiment [1] was more than 100 nM.
On the same counts, the results for `COC1CC(N2CCC([C@@H](C)n3c(C)c(C(=O)NCc4c(SC)cc(C)[nH]c4=O)c4ccccc43)CC2)C1` (stereo partly drawn) [Example 140, (R)-1-(1-(1-(3-methoxycyclobutyl)piperidin-4-yl)ethyl)-2-methyl-N-((6-methyl-4-(methylthio)-2-oxo-1,2-dihydropyridin-3-yl)methyl)-1H-indole-3-carboxamide] are less than 0.5 nM and 10 to 100 nM.
